Measurements published in US4605744A, “Imidazole derivatives” (Hoffmann-La Roche Inc., priority 1985, dated 1986).
Where a name gives a salt, the structure may show the parent alone. Read-outs that look alike come from different tables or passages of the source.

Columns and labels:
Format in all cases: cell-based
E. coli 257 = assay: In vitro antibacterial activity (MIC, Mueller-Hinton broth)
Method: Drug dilutions are prepared in Mueller-Hinton broth ranging from 128 to 0.008 μg/ml. The diluted agents are dispensed in 100 μl amounts into the wells of a 96-well tray and used immediately or frozen at -10° to -70° C. until needed. Using an automated inoculator, 1.5 μl of a 10^-2 dilution of an overnight culture is added to each well of the tray. The tops of the trays are then sealed using transparent tape and incubated overnight at 37° C. The trays are examined with the aid of a viewer. The lowest concentration at which no growth is observed is considered to be the minimum inhibitory concentration (MIC).

C. diversus CDC 1663-72 = assay: In vitro antibacterial activity (MIC)
How it was run: (§1)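 Mueller-Hinton broth carries the compound at 128–0.008 μg/ml; diluted drug may be used fresh or stored frozen at -10° to -70° C before use. Wells are seeded with a 10^-2 dilution of overnight culture and incubated overnight at 37° C.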

C. freundii CDC6 = assay: In vitro antibacterial activity (MIC)
How it was run: as §1

E. cloacae 24 = assay: In vitro antibacterial activity (MIC)
How it was run: as §1

P. aeruginosa 5700 = assay: In vitro antibacterial activity (MIC)
How it was run: as §1

P. aeruginosa 5712 = assay: In vitro antibacterial activity (MIC); details: P. aeruginosa 5712
How it was run: as §1

P. aeruginosa B = assay: In vitro antibacterial activity (MIC)
How it was run: as §1

P. aeruginosa Stone 130 = assay: In vitro antibacterial activity (MIC)
How it was run: as §1

P. mirabilis 503-1136 = assay: In vitro antibacterial activity (MIC)
How it was run: as §1

P. mirabilis 620A = assay: In vitro antibacterial activity (MIC); details: P. mirabilis 620A
How it was run: as §1

P. mirabilis 90 = assay: In vitro antibacterial activity (MIC)
How it was run: as §1

P. vulgaris 100 = assay: In vitro antibacterial activity (MIC); details: P. vulgaris 100
How it was run: as §1

P. vulgaris 101 = assay: In vitro antibacterial activity (MIC)
How it was run: as §1

S. aureus 1059B = assay: In vitro antibacterial activity (MIC)
How it was run: as §1

S. aureus Smith = assay: In vitro antibacterial activity (MIC); details: S. aureus Smith
How it was run: as §1

S. faecalis C1 = assay: In vitro antibacterial activity (MIC); details: S. faecalis C1
How it was run: as §1

S. marcescens S147 = assay: In vitro antibacterial activity (MIC); details: S. marcescens S147
How it was run: as §1

S. marcescens S1 = assay: In vitro antibacterial activity (MIC)
How it was run: as §1

S. marcescens S5 = assay: In vitro antibacterial activity (MIC)
How it was run: as §1

S. marcescens S714 = assay: In vitro antibacterial activity (MIC)
How it was run: as §1

S. pyogenes 503-782 = assay: In vitro antibacterial activity (MIC); details: S. pyogenes 503-782
How it was run: as §1

P. aeruginosa POW 151 = assay: In vitro antibacterial activity (MIC); details: Pseudomonas aeruginosa, POW151
How it was run: as §1

[1] = Citrobacter koseri, CDC166372, C. diversus CDC 1663-72, read-out: MIC
[2] = Citrobacter freundii, CDC6, C. freundii CDC6, read-out: MIC
[3] = Enterobacter cloacae, 24, E. cloacae 24, read-out: MIC
[4] = Pseudomonas aeruginosa, 5700, P. aeruginosa 5700, read-out: MIC
[5] = Proteus mirabilis, 5031136, P. mirabilis 503-1136, read-out: MIC
[6] = Proteus mirabilis, 620A, read-out: MIC
[7] = Proteus mirabilis, 90, P. mirabilis 90, read-out: MIC
[8] = Proteus vulgaris, read-out: MIC
[9] = Proteus vulgaris, 101, P. vulgaris 101, read-out: MIC
[10] = Staphylococcus aureus, read-out: MIC
[11] = Serratia marcescens, read-out: MIC
[12] = Serratia marcescens, S1, S. marcescens S1, read-out: MIC
[13] = Serratia marcescens, S5, S. marcescens S5, read-out: MIC
[14] = Pseudomonas aeruginosa, read-out: MIC
[15] = Serratia marcescens, S714, S. marcescens S714, read-out: MIC

Question: For CC1(C)S[C@@H]2[C@H](N=CN3CCCC(CCn4ccnc4)CC3)C(=O)N2[C@H]1C(=O)O.Cl.O (single isomer, unassigned) [D], which MIC (E. coli 257; E. coli 257) is on record?
Answer: The MIC was 0.125 mg/L.

Question: And the MIC (C. diversus CDC 1663-72; C. diversus CDC 1663-72)?
Answer: Its MIC is 0.125 mg/L.

Question: What about the MIC (C. freundii CDC6; C. freundii CDC6) of the same compound?
Answer: Its MIC is 0.25 mg/L.

Question: What about the MIC (E. cloacae 24; E. cloacae 24) of the same compound?
Answer: The MIC was 0.5 mg/L.

Question: And the MIC (P. aeruginosa 5700; P. aeruginosa 5700)?
Answer: The MIC was 0.5 mg/L.

Question: And the MIC (P. aeruginosa 5712)?
Answer: Its MIC is > 128 mg/L.

Question: What about the MIC (P. aeruginosa B) of the same compound?
Answer: The MIC was 0.25 mg/L.

Question: And the MIC (P. aeruginosa Stone 130)?
Answer: Its MIC is > 128 mg/L.

Question: And the MIC (P. mirabilis 503-1136; P. mirabilis 503-1136)?
Answer: The MIC was 16 mg/L.

Question: And the MIC (P. mirabilis 620A)?
Answer: Its MIC is 64 mg/L.

Question: And the MIC (P. mirabilis 90; P. mirabilis 90)?
Answer: The MIC was 1 mg/L.

Question: And the MIC (P. vulgaris 100)?
Answer: The MIC was 16 mg/L.

Question: What about the MIC (P. vulgaris 101; P. vulgaris 101) of the same compound?
Answer: The MIC was 32 mg/L.

Question: What about the MIC (S. aureus 1059B) of the same compound?
Answer: Its MIC is 128 mg/L.

Question: What about the MIC (S. aureus Smith) of the same compound?
Answer: The MIC was 32 mg/L.

Question: What about the MIC (S. faecalis C1) of the same compound?
Answer: The MIC was > 128 mg/L.

Question: What about the MIC (S. marcescens S147) of the same compound?
Answer: The MIC was 0.125 mg/L.

Question: And the MIC (S. marcescens S1; S. marcescens S1)?
Answer: The MIC was 0.5 mg/L.

Question: What about the MIC (S. marcescens S5; S. marcescens S5) of the same compound?
Answer: The MIC was 2 mg/L.

Question: What about the MIC (S. marcescens S714; S. marcescens S714) of the same compound?
Answer: The MIC was 1 mg/L.

Question: What about the MIC (S. pyogenes 503-782) of the same compound?
Answer: The MIC was > 128 mg/L.

Question: What does the source list for CC1(C)S[C@@H]2[C@H](N=CN3CCCC(c4ncc[nH]4)C3)C(=O)N2[C@H]1C(=O)O (stereo partly drawn) [P, [2S-(2alpha,5alpha,6beta)]-6-[[[3-(1H-imidazol-2-yl)-1-piperidinyl]methylene]amino]-3,3-dimethyl-7-oxo-4-thia-1-azabicyclo[3.2.0]heptane-2-carboxylicacid hydrochloride]?
Answer: MIC (E. coli 257; Escherichia coli, 257): 2 mg/L; MIC (C. diversus CDC 1663-72; [1]): 2 mg/L; MIC (C. freundii CDC6; [2]): 4 mg/L; MIC (E. cloacae 24; [3]): 8 mg/L; MIC (P. aeruginosa 5700; [4]): 8 mg/L; MIC (P. mirabilis 503-1136; [5]): 64 mg/L; MIC (P. mirabilis 620A; [6]): > 128 mg/L; MIC (P. mirabilis 90; [7]): 8 mg/L; MIC (P. vulgaris 100; [8]): 128 mg/L; MIC (P. vulgaris 101; [9]): 64 mg/L; MIC (S. aureus 1059B; [10]): 64 mg/L; MIC (S. aureus Smith; [10]): 2 mg/L; MIC (S. marcescens S147; [11]): 8 mg/L; MIC (S. marcescens S1; [12]): 8 mg/L; MIC (S. marcescens S5; [13]): > 128 mg/L; MIC (S. marcescens S714; Serratia marcescens, S714): 32 mg/L

Question: What does the source list for CC1(C)S[C@@H]2[C@H](N=CN3CCC(c4ncc[nH]4)CC3)C(=O)N2[C@H]1C(=O)O [O, [2S-(2alpha,5alpha,6beta)]-6-[[[4-(1H-imidazol-2-yl-1-piperidinyl]methylene]amino]-3,3-dimethyl-7-oxo-4-thia-1-azabicyclo[3.2.0]heptane-2-carboxylic acid hydrochloride trihydrate]?
Answer: MIC (E. coli 257; Escherichia coli, 257): 0.125 mg/L; MIC (C. diversus CDC 1663-72; Citrobacter koseri, CDC166372): 0.125 mg/L; MIC (C. freundii CDC6; Citrobacter freundii, CDC6): 0.125 mg/L; MIC (E. cloacae 24; [3]): 1 mg/L; MIC (P. aeruginosa 5700; [4]): 0.5 mg/L; MIC (P. aeruginosa 5712; [14]): > 128 mg/L; MIC (P. aeruginosa B; [14]): 0.5 mg/L; MIC (P. aeruginosa POW 151): > 128 mg/L; MIC (P. aeruginosa Stone 130; Pseudomonas aeruginosa, STONE130, read-out: MIC): > 128 mg/L; MIC (P. mirabilis 90; [7]): 0.5 mg/L; MIC (P. vulgaris 100; [8]): 8 mg/L; MIC (P. vulgaris 101; [9]): 32 mg/L; MIC (S. aureus 1059B; [10]): > 128 mg/L; MIC (S. faecalis C1; Enterococcus faecalis, read-out: MIC): 32 mg/L; MIC (S. marcescens S147; [11]): 0.25 mg/L; MIC (S. marcescens S1; [12]): 0.5 mg/L; MIC (S. marcescens S714; [15]): 1 mg/L; MIC (S. pyogenes 503-782; Streptococcus pyogenes, 503782, read-out: MIC): 32 mg/L

Question: What does the source list for CN(C)C=Nc1nccn1CCCC1CCN(C=N[C@@H]2C(=O)N3[C@@H]2SC(C)(C)[C@@H]3C(=O)O)CC1 [S, [2S-(2alpha,5alpha,6beta)]-6-[[[4-[3-[2-[[(dimethylamino)methylene]amino]-1H-imidazol-1-yl]propyl]-1-piperidinyl]methylene]amino]-3,3-dimethyl-7-oxo-4-thia-1-azabicyclo[3.2.0]heptane-2-carboxylic acid 1.7 molar hydrochloride 2.6 molar hydrate]?
Answer: MIC (E. coli 257; Escherichia coli, 257, E. coli 257, read-out: MIC): 0.25 mg/L; MIC (C. diversus CDC 1663-72; [1]): 0.5 mg/L; MIC (C. freundii CDC6; [2]): 0.5 mg/L; MIC (E. cloacae 24; [3]): 1 mg/L; MIC (P. mirabilis 503-1136; [5]): 8 mg/L; MIC (P. mirabilis 620A; [6]): > 128 mg/L; MIC (P. mirabilis 90; [7]): 4 mg/L; MIC (P. vulgaris 100; [8]): 8 mg/L; MIC (P. vulgaris 101; [9]): 8 mg/L; MIC (S. aureus 1059B; [10]): 64 mg/L; MIC (S. aureus Smith; [10]): 8 mg/L; MIC (S. marcescens S147; [11]): 2 mg/L; MIC (S. marcescens S1; [12]): 4 mg/L; MIC (S. marcescens S5; [13]): 4 mg/L; MIC (S. marcescens S714; [15]): 4 mg/L
